In patent publication US6521623B1, “N,N'-disubstituted benzimidazolone derivatives with affinity at the serotonin and dopamine receptors” (Boehringer Ingelheim Pharma KG, priority 2000, dated 2003):

What was measured:
5-HT1A [1] = molecular target: T1, 5-HT1A (Homo sapiens, UniProt P08908); assay: 5-HT1 Functional Assay (cAMP) in CHO/5-HT1A cells; assay type: cell-based; parameters: expressed in transfected cells; host or cells: CHO/5-HT1A cells
T1 sequence (P08908 1-422): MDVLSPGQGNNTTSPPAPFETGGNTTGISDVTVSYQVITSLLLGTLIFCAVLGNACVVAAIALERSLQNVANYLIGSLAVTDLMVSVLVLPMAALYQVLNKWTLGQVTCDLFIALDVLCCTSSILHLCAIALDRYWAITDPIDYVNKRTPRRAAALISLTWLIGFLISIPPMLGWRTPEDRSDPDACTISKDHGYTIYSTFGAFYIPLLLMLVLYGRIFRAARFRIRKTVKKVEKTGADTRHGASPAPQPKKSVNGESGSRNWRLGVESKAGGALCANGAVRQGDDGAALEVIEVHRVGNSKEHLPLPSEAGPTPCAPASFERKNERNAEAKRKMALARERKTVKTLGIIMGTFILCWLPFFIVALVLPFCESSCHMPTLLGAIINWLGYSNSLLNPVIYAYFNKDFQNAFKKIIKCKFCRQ
Description: 5-HT1 Functional Assay (cAMP)
CHO/5-HT1A cells were random seeded at a density of about 200,000/well in 24 well plates the day prior to the experiment. On the day of the experiment, cells were pretreated for 15 minutes at 37° C. with 500 μM isobutylmethylxantine (IBMX) dissolved in culture medium without serum. Wells were then divided in different groups in duplicate as follows: control, 10 μM FSK, 10 μM FSK+1 μM 5-HT as positive standard and 10 μM FSK+10 μM of the different compound under evaluation. Sample solutions were added and incubated for additional 15 minutes at 37° C. After incubation, the medium was aspirated and the reaction stopped by adding 200 μl of lysis buffer. Plates were shaken for 5 minutes, then the lysate was removed and samples were stored at 4° C. until the day of the assay. For the cAMP evaluation, samples were properly diluted and the cAMP content was measured by an enzyme immunoassay system.

5-HT2A [2] = molecular target: T2, 5-HT2A (Rattus norvegicus, UniProt P14842); assay: 5-HT2A Radioligand Receptor Binding Assay ([3H]-Ketanserin, cerebral frontal cortex membranes); conditions: 0.5 nM [3H]-Ketanserin
T2 construct: Cerebral frontal cortex was homogenized in 10 volumes of ice cold 0.32 M sucrose; from tissue; host or cells: rat cerebral frontal cortex membranes
T2 sequence (P14842 whole entry): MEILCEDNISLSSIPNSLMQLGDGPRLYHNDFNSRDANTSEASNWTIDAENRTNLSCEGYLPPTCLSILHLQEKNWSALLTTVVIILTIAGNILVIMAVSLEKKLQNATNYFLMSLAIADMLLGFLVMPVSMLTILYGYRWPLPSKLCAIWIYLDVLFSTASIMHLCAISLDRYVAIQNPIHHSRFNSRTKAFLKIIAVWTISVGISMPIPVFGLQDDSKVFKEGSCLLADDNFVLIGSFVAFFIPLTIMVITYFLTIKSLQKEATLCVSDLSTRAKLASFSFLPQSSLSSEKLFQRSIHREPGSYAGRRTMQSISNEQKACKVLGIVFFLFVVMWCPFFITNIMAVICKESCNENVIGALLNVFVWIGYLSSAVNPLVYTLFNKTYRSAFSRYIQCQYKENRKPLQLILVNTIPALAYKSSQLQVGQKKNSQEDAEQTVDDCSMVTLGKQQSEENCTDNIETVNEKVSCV
Description: 5-HT2A Radioligand Receptor Binding Assay
Rats (male Sprague-Dawley, 200-250 g) were used. Cerebral frontal cortex was homogenized in 10 volumes of ice cold 0.32 M sucrose in 5 mM Tris-HCl ([…]) buffer. After centrifugation of the homogenate (1,000×g for 10 minutes) the supernatant was then recentrifuged at 48,000×g for 15 minutes. The resulting pellet was gently homogenized in an equal volume of 50 mM Tris-HCl buffer (pH 7.4) and incubated at 37° C. for 10 minutes. Membranes were then collected by centrifugation as above described and finally resuspended in 10 volumes of 50 mM Tris-HCl buffer (pH 7.4).
For displacement experiments membranes (980 μl) were diluted in 50 mM Tris-HCl buffer (pH 7.4) to a final concentration of 1:100 (w/v); the tissue suspension was then incubated at 37° C. for 10 minutes in a final volume of 1 ml in the presence of 0.5 nM [^3H]-Ketanserin. Non-specific binding was determined by incubating similar samples with unlabelled methysergide (100 μM). After incubation, samples prepared in a 24 wells cell culture cluster (Costar) were rapidly filtered by Inotech Cell Harvester (IH 201 filters). The filters were washed three times with 2 ml ice-cold Tris-HCl buffer and placed in polyethylene vials, then 4 ml of Filter Count scintillation cocktail (Packard) were added. The radioactivity present was counted by liquid scintillation spectrometry.
The affinity values (IC50) for the compounds were obtained by a nonlinear least squares regression analysis on the basis of a one binding site model.

5-HT2A [3] = molecular target: 5-HT2A (Mus musculus, UniProt P35363); assay: 5-HT2 Functional Assay (PI Turnover) in cerebral cortex miniprisms; assay type: biochemical; conditions: 10 μM compound, inhibition of PI turnover accumulation induced by 100 μM 5-HT
Sequence of 5-HT2A (Mus musculus, UniProt P35363) (P35363 whole entry, looked up): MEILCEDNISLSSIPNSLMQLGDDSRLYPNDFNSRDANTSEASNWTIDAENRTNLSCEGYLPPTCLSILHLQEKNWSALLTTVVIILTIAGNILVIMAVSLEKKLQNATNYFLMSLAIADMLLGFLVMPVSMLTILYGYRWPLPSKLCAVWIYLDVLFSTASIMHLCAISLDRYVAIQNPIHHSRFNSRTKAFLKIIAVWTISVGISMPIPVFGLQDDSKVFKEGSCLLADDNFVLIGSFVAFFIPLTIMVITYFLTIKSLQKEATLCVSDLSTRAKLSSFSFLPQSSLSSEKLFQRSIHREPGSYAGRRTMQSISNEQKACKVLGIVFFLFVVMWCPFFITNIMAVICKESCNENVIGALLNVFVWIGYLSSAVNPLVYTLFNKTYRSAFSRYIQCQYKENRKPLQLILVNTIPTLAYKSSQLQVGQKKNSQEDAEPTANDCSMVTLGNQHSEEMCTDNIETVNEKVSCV
Description: 5-H T2 Functional Assay (PI Turnover)
Cross-chopped miniprisms (350×350 μm) were prepared from mouse whole cerebral cortices and incubated for 60 minutes at 37° C. in Krebs-Henseleit buffer containing 2 g/l glucose.
Cerebral cortex miniprisms were distributed in vials and incubated for 30 minutes with approximately 170 nM [^3H]-myoinositol (10-20 Ci/mmol) and […] lithium chloride. Samples were divided in different groups in triplicate: control, 100 μM 5-HT, 10 and 30 μM flibanserin+100 μM 5-HT, as standards, and 10 μM of the different compound under investigation+100 μM 5-HT. When 5-HT was added the incubation continued for 45 minutes. Compounds under investigation and flibanserin were added 10 minutes before dispensing 5-HT. Incubation was terminated by the addition of 940 μl chloroform-methanol (1:2 v/v). Further aliquots of chloroform (310 μl) and water (310 μl) were added and labeled inositol phosphates (1 Ps) were extracted from the aqueous phase by ion exchange chromatography using Dowex resin in the formate form. After addition of 10 ml of PicoFluor 40 scintillation cocktail (Packard), the radioactivity present in an aliquot (400 μl) of the aqueous extract was counted by liquid scintillation spectrometry.

5-HT1A [4] = molecular target: T1, 5-HT1A; assay: 5HT1A Radioligand Receptor Binding Assay ([3H]-8-OH-DPAT, CHO cell membranes); parameters: expressed in transfected cells; host or cells: CHO cells; conditions: [3H]-8-OH-DPAT; CHO membranes, human 5-HT1A; read-out: 5-HT1A Receptor Binding IC50
Procedure, shortened: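 CHO-cell membranes expressing human 5-HT1A incubated with [3H]-8-OH-DPAT (0.6-0.7 nM) for 60 minutes at 27° C, filtered and scintillation counted; non-specific binding defined with 10^−5 M 5-HT. Compounds tested singly at 10^−7 M as % of control specific binding; IC50 from one-site nonlinear regression.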

SMILES	inhibition at 10 µM (5-HT1A [1]) [%]	IC50 (5-HT2A [2]) [nM]	5-HT2A PI Turnover % inhibition (5-HT2A [3]) [%]	IC50 (5-HT1A [4]) [nM]
Cc1cccc(N2CCN(C/C=C\Cn3c(=O)n(CCNS(C)(=O)=O)c4ccccc43)CC2)c1 [Compound 514]	67	74	41	7.9
CS(=O)(=O)NCCn1c(=O)n(C/C=C/CN2CCN(c3cccc(Cl)c3)CC2)c2ccccc21 [Compound 521]	67	30	48	0.61
